In BindingDB's records for doi:10.1016/s0960-894x(03)00461-x (Eli Lilly, 2003) one finds IC50 data, which are given here for 28 compounds.

The target of this experiment is cAMP-dependent protein kinase catalytic subunit alpha (Bos taurus, UniProt P00517). Description: CDK Kinase Inhibition Assay. The note with it: 25 °C.
With `O=C1NC(=O)c2c1c1c(ccc3cc[nH]c31)c1[nH]c3ccccc3c21` [3,13,18-triazahexacyclo[14.7.0.0^{2,10}.0^{4,9}.0^{11,15}.0^{17,21}]tricosa-1(16),2(10),4(9),5,7,11(15),17(21),19,22-nonaene-12,14-dione], the IC50 was more than 2 µM. `O=C1NC(=O)c2c1c1c(ccc3cc[nH]c31)c1c2c2ccccc2n1CCCO` [3-(3-hydroxypropyl)-3,13,18-triazahexacyclo[14.7.0.0^{2,10}.0^{4,9}.0^{11,15}.0^{17,21}]tricosa-1(16),2(10),4(9),5,7,11(15),17(21),19,22-nonaene-12,14-dione] came in with an IC50 of more than 20 µM. In the case of `Cn1ccc2ccc3c(c4c(c5c6ccccc6n(CCCO)c35)C(=O)NC4=O)c21` [3-(3-hydroxypropyl)-18-methyl-3,13,18-triazahexacyclo[14.7.0.0^{2,10}.0^{4,9}.0^{11,15}.0^{17,21}]tricosa-1(16),2(10),4(9),5,7,11(15),17(21),19,22-nonaene-12,14-dione] it was more than 2 µM. On to `COc1ccc2c3c4c(c5c(ccc6ccn(C)c65)c3n(CCN3CCC[C@H]3CO)c2c1)C(=O)NC4=O` [3-{2-[(2S)-2-(hydroxymethyl)pyrrolidin-1-yl]ethyl}-6-methoxy-18-methyl-3,13,18-triazahexacyclo[14.7.0.0^{2,10}.0^{4,9}.0^{11,15}.0^{17,21}]tricosa-1(16),2(10),4(9),5,7,11(15),17(21),19,22-nonaene-12,14-dione], for which the IC50 was more than 20 µM. With `Cn1ccc2ccc3c4[nH]c5c(CCO)cccc5c4c4c(c3c21)C(=O)NC4=O` [5-(2-hydroxyethyl)-18-methyl-3,13,18-triazahexacyclo[14.7.0.0^{2,10}.0^{4,9}.0^{11,15}.0^{17,21}]tricosa-1(16),2(10),4(9),5,7,11(15),17(21),19,22-nonaene-12,14-dione], the IC50 is more than 20 µM. With `Cn1ccc2ccc3c4[nH]c5c(CCCO)cccc5c4c4c(c3c21)C(=O)NC4=O` [5-(3-hydroxypropyl)-18-methyl-3,13,18-triazahexacyclo[14.7.0.0^{2,10}.0^{4,9}.0^{11,15}.0^{17,21}]tricosa-1(16),2(10),4(9),5,7,11(15),17(21),19,22-nonaene-12,14-dione], the 50% inhibitory concentration (IC50) was more than 20 µM. In the case of `COc1cccc2c1[nH]c1c3ccc4ccn(C)c4c3c3c(c21)C(=O)NC3=O` [5-methoxy-18-methyl-3,13,18-triazahexacyclo[14.7.0.0^{2,10}.0^{4,9}.0^{11,15}.0^{17,21}]tricosa-1(16),2(10),4(9),5,7,11(15),17(21),19,22-nonaene-12,14-dione] it was more than 20 µM; in that of `Cc1ccc2c(c1)[nH]c1c3ccc4ccn(C)c4c3c3c(c21)C(=O)NC3=O` [6,18-dimethyl-3,13,18-triazahexacyclo[14.7.0.0^{2,10}.0^{4,9}.0^{11,15}.0^{17,21}]tricosa-1(16),2(10),4(9),5,7,11(15),17(21),19,22-nonaene-12,14-dione], more than 20 µM. `Cn1ccc2ccc3c4[nH]c5cc(Br)ccc5c4c4c(c3c21)C(=O)NC4=O` [6-bromo-18-methyl-3,13,18-triazahexacyclo[14.7.0.0^{2,10}.0^{4,9}.0^{11,15}.0^{17,21}]tricosa-1(16),2(10),4(9),5,7,11(15),17(21),19,22-nonaene-12,14-dione] showed an IC50 of more than 20 µM. The compound `CCOc1ccc2c(c1)[nH]c1c3ccc4ccn(C)c4c3c3c(c21)C(=O)NC3=O` [6-ethoxy-18-methyl-3,13,18-triazahexacyclo[14.7.0.0^{2,10}.0^{4,9}.0^{11,15}.0^{17,21}]tricosa-1(16),2(10),4(9),5,7,11(15),17(21),19,22-nonaene-12,14-dione] came in with an IC50 of more than 20 µM. In the case of `Cc1cc2ccn(C)c2c2c3c(c4c5ccc(F)cc5[nH]c4c12)C(=O)NC3=O` [6-fluoro-18,23-dimethyl-3,13,18-triazahexacyclo[14.7.0.0^{2,10}.0^{4,9}.0^{11,15}.0^{17,21}]tricosa-1(16),2(10),4(9),5,7,11(15),17(21),19,22-nonaene-12,14-dione] it was more than 20 µM; in that of `Cn1ccc2ccc3c4[nH]c5cc(F)ccc5c4c4c(c3c21)C(=O)NC4=O` [6-fluoro-18-methyl-3,13,18-triazahexacyclo[14.7.0.0^{2,10}.0^{4,9}.0^{11,15}.0^{17,21}]tricosa-1(16),2(10),4(9),5,7,11(15),17(21),19,22-nonaene-12,14-dione], more than 20 µM. In the case of `COc1ccc2c(c1)[nH]c1c2c2c(c3c1c(C)cc1ccn(C)c13)C(=O)NC2=O` [6-methoxy-18,23-dimethyl-3,13,18-triazahexacyclo[14.7.0.0^{2,10}.0^{4,9}.0^{11,15}.0^{17,21}]tricosa-1(16),2(10),4(9),5,7,11(15),17(21),19,22-nonaene-12,14-dione] it was more than 20 µM; in that of `COc1ccc2c(c1)[nH]c1c3ccc4ccn(C)c4c3c3c(c21)C(=O)NC3=O` [6-methoxy-18-methyl-3,13,18-triazahexacyclo[14.7.0.0^{2,10}.0^{4,9}.0^{11,15}.0^{17,21}]tricosa-1(16),2(10),4(9),5,7,11(15),17(21),19,22-nonaene-12,14-dione], more than 20 µM; in that of `Cn1ccc2ccc3c4[nH]c5ccc(F)cc5c4c4c(c3c21)C(=O)NC4=O` [7-fluoro-18-methyl-3,13,18-triazahexacyclo[14.7.0.0^{2,10}.0^{4,9}.0^{11,15}.0^{17,21}]tricosa-1(16),2(10),4(9),5,7,11(15),17(21),19,22-nonaene-12,14-dione], more than 20 µM.

Consider `COc1ccc2[nH]c3c4ccc5ccn(C)c5c4c4c(c3c2c1)C(=O)NC4=O` [7-methoxy-18-methyl-3,13,18-triazahexacyclo[14.7.0.0^{2,10}.0^{4,9}.0^{11,15}.0^{17,21}]tricosa-1(16),2(10),4(9),5,7,11(15),17(21),19,22-nonaene-12,14-dione], for which the IC50 was more than 20 µM.

`Cn1ccc2ccc3c4[nH]c5cccc(CO)c5c4c4c(c3c21)C(=O)NC4=O` [8-(hydroxymethyl)-18-methyl-3,13,18-triazahexacyclo[14.7.0.0^{2,10}.0^{4,9}.0^{11,15}.0^{17,21}]tricosa-1(16),2(10),4(9),5,7,11(15),17(21),19,22-nonaene-12,14-dione] yielded an IC50 of more than 20 µM. The compound `Cn1ccc2ccc3c4[nH]c5cccc(Br)c5c4c4c(c3c21)C(=O)NC4=O` [8-bromo-18-methyl-3,13,18-triazahexacyclo[14.7.0.0^{2,10}.0^{4,9}.0^{11,15}.0^{17,21}]tricosa-1(16),2(10),4(9),5,7,11(15),17(21),19,22-nonaene-12,14-dione] gave a half-maximal inhibitory concentration (IC50) of more than 20 µM. Compound `Cn1ccc2ccc3c4[nH]c5cccc(F)c5c4c4c(c3c21)C(=O)NC4=O` [8-fluoro-18-methyl-3,13,18-triazahexacyclo[14.7.0.0^{2,10}.0^{4,9}.0^{11,15}.0^{17,21}]tricosa-1(16),2(10),4(9),5,7,11(15),17(21),19,22-nonaene-12,14-dione] had a half-maximal inhibitory concentration (IC50) of more than 20 µM. `Cc1cc2ccn(C)c2c2c3c(c4c5ccccc5[nH]c4c12)C(=O)NC3=O` [18,23-dimethyl-3,13,18-triazahexacyclo[14.7.0.0^{2,10}.0^{4,9}.0^{11,15}.0^{17,21}]tricosa-1(16),2(10),4(9),5,7,11(15),17(21),19,22-nonaene-12,14-dione] displayed an IC50 of more than 20 µM.

Take `Cc1cc2ccn(C)c2c2c3c(c4c5ccc(C(F)(F)F)cc5[nH]c4c12)C(=O)NC3=O` [18,23-dimethyl-6-(trifluoromethyl)-3,13,18-triazahexacyclo[14.7.0.0^{2,10}.0^{4,9}.0^{11,15}.0^{17,21}]tricosa-1(16),2(10),4(9),5,7,11(15),17(21),19,22-nonaene-12,14-dione]: the IC50 is more than 20 µM. In the case of `CCn1ccc2ccc3c4[nH]c5ccccc5c4c4c(c3c21)C(=O)NC4=O` [18-ethyl-3,13,18-triazahexacyclo[14.7.0.0^{2,10}.0^{4,9}.0^{11,15}.0^{17,21}]tricosa-1(16),2(10),4(9),5,7,11(15),17(21),19,22-nonaene-12,14-dione] it was more than 2 µM. Compound `Cn1ccc2ccc3c4[nH]c5ccccc5c4c4c(c3c21)C(=O)NC4=O` [18-methyl-3,13,18-triazahexacyclo[14.7.0.0^{2,10}.0^{4,9}.0^{11,15}.0^{17,21}]tricosa-1(16),2(10),4(9),5,7,11(15),17(21),19,22-nonaene-12,14-dione] yielded an IC50 of more than 20 µM. `Cn1ccc2ccc3c4[nH]c5c(CCN6CCOCC6)cccc5c4c4c(c3c21)C(=O)NC4=O` [18-methyl-5-[2-(morpholin-4-yl)ethyl]-3,13,18-triazahexacyclo[14.7.0.0^{2,10}.0^{4,9}.0^{11,15}.0^{17,21}]tricosa-1(16),2(10),4(9),5,7,11(15),17(21),19,22-nonaene-12,14-dione]: the IC50 was more than 20 µM. `Cn1ccc2ccc3c4[nH]c5c(CCN6CCSCC6)cccc5c4c4c(c3c21)C(=O)NC4=O` [18-methyl-5-[2-(thiomorpholin-4-yl)ethyl]-3,13,18-triazahexacyclo[14.7.0.0^{2,10}.0^{4,9}.0^{11,15}.0^{17,21}]tricosa-1(16),2(10),4(9),5,7,11(15),17(21),19,22-nonaene-12,14-dione] gave an IC50 of more than 20 µM. In the case of `Cn1ccc2ccc3c4[nH]c5c(CCCN6CCOCC6)cccc5c4c4c(c3c21)C(=O)NC4=O` [18-methyl-5-[3-(morpholin-4-yl)propyl]-3,13,18-triazahexacyclo[14.7.0.0^{2,10}.0^{4,9}.0^{11,15}.0^{17,21}]tricosa-1(16),2(10),4(9),5,7,11(15),17(21),19,22-nonaene-12,14-dione] it was more than 20 µM; in that of `Cn1ccc2ccc3c4[nH]c5cc(C(F)(F)F)ccc5c4c4c(c3c21)C(=O)NC4=O` [18-methyl-6-(trifluoromethyl)-3,13,18-triazahexacyclo[14.7.0.0^{2,10}.0^{4,9}.0^{11,15}.0^{17,21}]tricosa-1(16),2(10),4(9),5,7,11(15),17(21),19,22-nonaene-12,14-dione], more than 20 µM; in that of `Cn1ccc2ccc3c4[nH]c5cc(C#N)ccc5c4c4c(c3c21)C(=O)NC4=O` [18-methyl-12,14-dioxo-3,13,18-triazahexacyclo[14.7.0.0^{2,10}.0^{4,9}.0^{11,15}.0^{17,21}]tricosa-1(16),2(10),4(9),5,7,11(15),17(21),19,22-nonaene-6-carbonitrile], more than 20 µM.

The IC50 is the midpoint of a concentration-inhibition curve. A low value points to inhibition by little substance.
